The values that follow come from PMC3320797 (Chemical biology & drug design, 2010).

“Also recorded” adds a separate entry of the source. Like-named read-outs stand apart in the source and are kept apart here.

Data set [1] has as its target T1, HIV-1 RT DNA polymerase (Human immunodeficiency virus type 1 group M subtype B, UniProt P04585). Conditions: read-out: Inhibition of RT DNA polymerase activity (IC50); ref [20]; cited from earlier work.
Data set [2] concerns the target T2, p15-EC RNH fragment (Human immunodeficiency virus type 1 group M subtype B, UniProt P04585, DELINS1094-1102[…]). As to conditions: read-out: Inhibition of the p15-EC RNH fragment (IC50); ref [20]; cited from earlier work.
In data set [3] the target is T2, p15-EC RNH fragment. The data set is described as follows: RNH activity of p15-EC RNH domain fragment, rapid fluorescence assay. The format is biochemical, HIV-1 / Escherichia coli chimera. Conditions: for IC50: read-out: Inhibition of the p15-EC RNH fragment (IC50), 2 mM Mn2+.
The target of data set [4] is T1, HIV-1 RT DNA polymerase. Put plainly: RT RNA-dependent DNA polymerase activity assay. Conditions: read-out: Inhibition of RT DNA polymerase activity (IC50). The format is biochemical.
The nature of the next data set: Aqueous solubility. The format is physicochemical. As to conditions: aqueous solution.
For data set [5], the target named is p15-EC RNH domain fragment (Human immunodeficiency virus type 1 group M subtype B, UniProt P04585, DELINS1094-1102[…]). The data set is described as follows: NMR 1H-15N HSQC chemical shift titration, dissociation constant. Conditions: read-out: Inhibitor dissociation constant, KD. The format is binding, HIV-1 / Escherichia coli chimera.
For the next data set, the system named is HIV-1. Conditions: ref [21], [22]; cited from earlier work.

Regarding `COc1ccc2ccccc2c1/C=N/NC(=O)c1ccc(O)c(O)c1` [DHBNH, dihydroxy benzoyl naphthyl hydrazone], the values for the IC50 on HIV-1 RT DNA polymerase [1] and on p15-EC RNH fragment [2] were over 25 µM and 18.5 ± 3.4 µM, respectively.

With `O=C(O)c1ccc(-c2cccc(/C=N/NC(=O)c3ccc(O)c(O)c3)c2)cc1` [BHMP03], the “Ratio of p15-EC RNH IC50 relative to BHMP07” value at p15-EC RNH fragment [3] (IC50 of BHMP03 versus BHMP07) is recorded as “more than 50 times”. Besides, the IC50 at p15-EC RNH fragment [3] and at HIV-1 RT DNA polymerase [4] was over 50 µM each time. Moreover, in the data set “Aqueous solubility”, the “Aqueous solubility relative to DHBNH” value is recorded as “more soluble in aqueous solution than the naphthyl-based DHBNH”.

For `O=C(O)c1ccc(-c2cccc(/C=N/NC(=O)c3cc(O)c(O)c(O)c3)c2)cc1` [BHMP07], the IC50 – broadly, the midpoint of a concentration-inhibition curve – on p15-EC RNH fragment [3] worked out at 0.8 ± 0.06 µM; at HIV-1 RT DNA polymerase [4], 0.3 ± 0.2 µM. In addition, in “Aqueous solubility”, the “Aqueous solubility relative to DHBNH” value was “higher aqueous solubility than DHBNH; also recorded: more soluble in aqueous solution than the naphthyl-based DHBNH”. Besides, the “Solubility at the levels used in the NMR studies” value in the data set “Aqueous solubility” (inhibitor up to 0.8 mM, overnight incubation) was “not likely completely soluble in aqueous solution”. Besides, the Kd (commonly the equilibrium constant for the complex coming apart) in data set [5] (residue A76 (502), + 20 mM Mg2+) worked out at 311 ± 41.5 µM; in data set [5] (residue A76 (502), no Mg2+) it was 192 ± 28.9 µM; in data set [5] (residue I79 (505), + 20 mM Mg2+) it was 372 ± 60.2 µM; in data set [5] (residue I79 (505), no Mg2+), 212 ± 20.1 µM; in data set [5] (residue I114 (526), + 20 mM Mg2+), 321 ± 26.2 µM; in data set [5] (residue I114 (526), no Mg2+), 217 ± 38.4 µM. In addition, the Kd was found to be 454 ± 151 µM in data set [5] (residue K93, + 20 mM Mg2+); 194 ± 18.3 µM in data set [5] (residue K93, no Mg2+); 246 ± 72.8 µM in data set [5] (residue Q74 (500), + 20 mM Mg2+); 242 ± 18.2 µM in data set [5] (residue V124 (536), no Mg2+); 262 ± 135 µM in data set [5] (residue Y75 (501), + 20 mM Mg2+).

As for `CC(C)c1ccc(O)c(=O)c(O)c1` [β-thujaplicinol], the Antiviral activity result with HIV-1 is listed as “neither of these compounds has antiviral activity”.
